Measured values published in patent US12590118B2, “Salt and crystal form of steroid derivative regulator” (Shanghai Hansoh Biomedical Co., Ltd., priority 2019, dated 2026).

Target: T1, human GABAA receptor α1, β2 and γ2 subunit (HEK293T cell line) (Homo sapiens, UniProt P14867+P47870)
T1 construct: expressed in transfected cells
Test: Positive regulatory effect on GABAA receptor, manual patch clamp
Type: cell-based
Settings: whole-cell current, 1 μM GABA
Procedure: The objective of this test example is to determine the positive regulatory effect of the compound on GABAA receptor by the electrophysiological manual patch clamp method.
Manual patch clamp system HEKA EPC10 USB signal amplifier and digital conversion system (purchased from HEKA Electronics, Germany), centrifuge (Eppendorf, etc.), carbon dioxide incubator (purchased from Thermo, etc.), biological safety cabinet (Thermo, etc.), pipette (purchased from Eppendorf, etc.).
The cells were grown in a culture dish with DMEM medium (purchased from Invitrogen), and cultured in an incubator at 37° C. and 5% CO2. Before the electrophysiological experiment, the cells were transferred to a round glass slide placed in the culture dish, and grown in the same culture medium and under the same culture condition as above. The density of cells on each round glass slide should meet the requirement that most cells were independent and individual.
Each test compound was diluted in gradient with DMSO to obtain a stock solution, which was then diluted with extracellular fluid by 1,000-fold to obtain the final test concentration. The final concentration of DMSO in the compound solution with each concentration was 0.1%. The experiment used the manual patch clamp system HEKA EPC10 USB signal amplifier and digital conversion system for whole cell current recording. The round glass slide with HEK293T GABAA cells grown on the surface was taken out of the culture dish, and placed in the electrophysiological recording tank under the inverted microscope. The recording tank was continuously perfused with extracellular fluid. During the experiment, the whole-cell current recording technology was used to record the chloride current of the GABAA channel. 1 μM GABA was used to activate the chloride current of the GABAA channel of each cell as an initial control. 1 μM GABA acted on the cell through the drug perfusion system to induce the chloride current of the GABAA channel, the action time was about 3 to 5 seconds, and the current value was used as the initial control value. The test concentration of compound was perfused and incubated for 2 to 5 minutes. […] GABA solution (mixed with the test concentration of compound) was given to the cells to observe the enhancement effect of the test compound on the current induced by 1 μM GABA. When the cell state was stable, the test compound acted on the same cell from low to high concentration to record the enhancement effect of the induced current.
The experimental data was analyzed by HEKA Patchmaster, Microsoft Excel and the data analysis software provided by Graphpad Prism.

T1 sequence (P14867 28-456): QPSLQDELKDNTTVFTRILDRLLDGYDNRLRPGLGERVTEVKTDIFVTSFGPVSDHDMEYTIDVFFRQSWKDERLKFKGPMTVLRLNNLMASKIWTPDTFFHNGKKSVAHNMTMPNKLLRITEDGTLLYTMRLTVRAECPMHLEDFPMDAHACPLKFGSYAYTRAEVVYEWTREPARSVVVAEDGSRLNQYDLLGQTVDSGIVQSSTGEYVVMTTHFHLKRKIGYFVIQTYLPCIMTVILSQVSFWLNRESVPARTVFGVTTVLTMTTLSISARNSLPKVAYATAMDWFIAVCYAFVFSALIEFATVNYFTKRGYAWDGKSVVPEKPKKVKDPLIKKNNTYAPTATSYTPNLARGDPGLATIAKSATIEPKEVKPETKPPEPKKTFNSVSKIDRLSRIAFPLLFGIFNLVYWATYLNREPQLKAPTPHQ
T1 sequence (P47870 25-512 limits assumed): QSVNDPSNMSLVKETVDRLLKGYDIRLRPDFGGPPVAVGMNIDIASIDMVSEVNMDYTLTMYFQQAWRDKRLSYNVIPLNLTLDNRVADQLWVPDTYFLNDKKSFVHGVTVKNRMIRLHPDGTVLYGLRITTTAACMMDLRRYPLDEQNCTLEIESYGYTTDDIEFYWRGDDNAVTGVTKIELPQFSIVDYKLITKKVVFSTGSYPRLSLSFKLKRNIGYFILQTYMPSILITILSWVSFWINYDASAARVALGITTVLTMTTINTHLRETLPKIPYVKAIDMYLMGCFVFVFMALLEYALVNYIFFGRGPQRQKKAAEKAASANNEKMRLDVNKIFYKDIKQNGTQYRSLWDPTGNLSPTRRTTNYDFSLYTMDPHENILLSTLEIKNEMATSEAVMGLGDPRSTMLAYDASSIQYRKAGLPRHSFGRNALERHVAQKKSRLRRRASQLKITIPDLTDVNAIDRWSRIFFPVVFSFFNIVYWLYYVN
T1 sequence (P18507 40-475 partner): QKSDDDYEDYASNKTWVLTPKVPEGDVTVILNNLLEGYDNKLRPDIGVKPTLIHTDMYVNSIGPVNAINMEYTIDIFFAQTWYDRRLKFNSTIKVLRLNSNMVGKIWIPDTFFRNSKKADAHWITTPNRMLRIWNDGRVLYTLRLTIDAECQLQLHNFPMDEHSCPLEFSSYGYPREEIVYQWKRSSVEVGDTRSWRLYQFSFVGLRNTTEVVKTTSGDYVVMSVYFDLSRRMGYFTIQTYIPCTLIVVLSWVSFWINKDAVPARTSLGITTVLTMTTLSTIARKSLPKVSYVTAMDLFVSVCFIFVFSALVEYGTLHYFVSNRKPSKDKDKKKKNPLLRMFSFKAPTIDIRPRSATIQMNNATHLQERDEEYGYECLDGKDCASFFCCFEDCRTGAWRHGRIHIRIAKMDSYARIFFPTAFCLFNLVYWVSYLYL

C[C@@H]1C[C@H](C(=O)Cn2ccc(C#N)n2)[C@@]2(C)CC[C@H]3[C@@H](CC[C@@H]4C[C@](C)(O)CC[C@@H]43)[C@H]12 [Example 40, 1-(2-((3R,5R,8R,9R,10S,13S,14S,15R,17S)-3-Hydroxy-3,13,15-trimethylhexadecahydro-1H-cyclopenta[a]phenanthren-17-yl)-2-oxoethyl)-1H-pyrazole-3-carbonitrile]
EC50: 57 nM
